# Laboratory results from patent US7473708B2, “Agents with leukotriene B4-like antiviral (enveloped RNA) activities” (priority 1996, dated 2009).
# “And” between values parts separate entries of the source, which are not always exact repeats. Equal values may be shown once.
# Legend:
# EBV = test: EBV-induced tumor formation in SCID mice given human PBL
# HSV-1 (strain McIntyre) = test: Detection of specific HSV-1 antigen in HSV-1-infected PBMC (immunofluorescence); format: cell-based, human; details: specific antiserum from a chronically infected donor
# Description: Synthesis of the viral antigen was inhibited by 60% in the presence of 100 nM LTB4 (FIG. 4). The results illustrated in FIG. 4 are representative of five (5) other experiments.
# PBMC were infected with EBV and HSV-1 and treated or not with 100 nM of analogs of LTB4 such as 20-OH-LTB4, LTA3 methyl ester, 12(R)-HETE and 5(S), 15(S)-diHETE. After six days of culture, the presence of EBNA antigen (a consequence of EBV infection) was evaluated by the ACIF test, as described in Example I. Similarly, the presence of HSV-1 antigen in PBMC was evaluated by immunofluorescence using an antiserum obtained from a chronically infected donor as described above in section entitled “Detection of Specific HSV-1 Antigen”. […] The results illustrated in Table 1 are representative of three other experiments.
# HIV-1 = test: Synthesis of HIV-1 particles in J1.1 cells (end-point titration, TCID50); format: cell-based; details: for percentage of inhibition of HIV-1 particles synthesis: 48 hours
# Description: This set of experiments was carried out with the J1.1 cell line, a latently […] cell line derived from the parental cell line Jurkat E6.1. J1.1 cells were resuspended at a density of 10^6 cells/ml in culture medium (RPMI-1640 supplemented with 10% FBS) and were stimulated with the phorbol ester PM-A (20 ng/ml) in the absence or the presence of increasing concentrations of LTB4 (0,30, 100 nM). LTB4 was again added (to the same concentrations) 24 hours after the initiation of the cultures.
# End-point titration was carried out in flat-bottom microtiter wells using four parallel series of ten-fold dilutions of cell-free supernatants. After 5 to 7 days of incubation with MT-4 cells, cell-free supernatants were harvested and tested for the major viral core p24 protein by a commercially available enzymatic assay. The TCID50 was calculated by the method of Reed and Muench.
# HSV-1 = test: Synthesis of HSV-1 particles in Vero cells; details: concentration not stated (summary)
# HIV-1IIIB = test: Reverse transcriptase activity in HIV-1-infected PBMC; format: cell-based, human; details: LTB4 in culture media (100 nM elsewhere in the source), two weeks of culture
# Description: PBMC were resuspended at a density of 10^6 cells/ml in culture medium (RPMI-1640 supplemented with 10% FBS), and cultured in the presence of 3 μg/ml PHA-P (Sigma, St.Louis, Mo.) and 30 U/ml of recombinant human IL-2 for 2 to 3 days at 37° C. under a 5% CO2 atmosphere. PHA-stimulated PBMC were resuspended at 1×10^6 cells/ml and were infected with HIV-1IIIB (various multiplicity of infection: number of infectious virus particles/target cell) in the absence or the presence of increasing concentrations of LTB4 (0, 30, 100, and 200 nM). The culture media were changed twice a week and appropriate amounts of LTB4 were added at every medium change. […] Virus replication was monitored either by reverse transcriptase or p24 assays. […]
# Enzymatic activity was measured with 50 μl of cell-free supernatant to which 10 μl of a solution A (5 mM dithiothreitol, 50 mM KCl, 0.05% Triton X-100) and 40 μl of a solution B (5 mM MgCl2, […], 0.04 mg of poly(rA)-oligo(dT)12-18, […] [^3H]TTP (40 to 70 Ci/mmol) had been added. After incubation for 1 hour at 37° C., samples were precipitated with one volume of a solution containing 0.15% pyrophosphate and 1.66% trichloroacetic acid prior filtration onto glass fiber filters by using a cell harvester system. The filters were dried and radioactivity was measured in a liquid scintillation counter (1205/1204 BS Beta-plate; Wallac Oy, Turku, Finland). […]
# [1] = system: cell cultures of Examples I and II; test: LTB4 cytotoxicity, trypan blue dye exclusion test; format: cell-based, human; details: concentrations up to 30 nM
# Description: In cell cultures described in Examples I and II, the cytotoxic effect of LTB4 was assessed by the trypan blue dye exclusion test at concentrations up to 30 nM. […] Cell viability was assessed by the trypan blue exclusion test; values (from 1 experiment representative of 3) represent the mean cell viability in cell cultures (n=24).
# [2] = EBV-infected, LTB4 i.p. 10 then 5 μg/mouse, day 42
structure (smiles),measurement,setting,value
"CCCCC/C=C\C[C@@H](O)/C=C/C=C/C=C\[C@@H](O)CCCC(=O)O [LTB4, 5S,12R-dihydroxy-6,8,10,14 (Z,E,E,Z)-eicosatetraenoic acid]",Splenomegaly: Enlarged (mice affected / mice in group),EBV; [2],6/9
same,Splenomegaly: Normal (mice affected / mice in group),EBV; [2],1/9
same,Splenomegaly: Very enlarged (mice affected / mice in group),EBV; [2],2/9
same,Tumor size 800-1500 mm^3 (mice affected / mice in group),EBV; [2],3/9
same,Tumor size <800 mm^3 (mice affected / mice in group),EBV; [2],6/9
same,Tumor size >1500 mm^3 (mice affected / mice in group),EBV; [2],0/9
same,tumor growth induced by EBV,"EBV; SCID mice, 42 days",reduces tumor growth induced by EBV
same,behaviour and survival of uninfected mice treated with LTB4 alone,"EBV; uninfected SCID mice, LTB4 i.p., 42-day period",behaved normally and survived throughout the 42-day period
same,inhibition of synthesis of HSV-1 antigen,HSV-1 (strain McIntyre),75%
same,percentage of inhibition of HIV-1 particles synthesis,HIV-1; LTB4 30 nM,49% and 50% and 56%
same,percentage of inhibition of HIV-1 particles synthesis,HIV-1; LTB4 100 nM,55% and 61% and 79%
same,inhibition of formation of new HIV-1 particles,HIV-1; concentration not stated (summary),> 55%
same,inhibition of formation of new HSV-1 particles,HSV-1,75%
same,reduction of reverse transcriptase (viral) activity,HIV-1IIIB,more than 70%
same,cytotoxic effect / cell viability,[1],no direct cytotoxic effect
